In patent publication US5736533A, “Bacterial inhibition with an oligosaccharide compound” (Neose Technologies, Inc., priority 1995, dated 1998):
Where “and” joins values, the source holds several entries; their conditions need not be identical. Identical values can stand only once. Like-named read-outs stand apart in the source and are kept apart here.

Key:
[1] = test system: H. influenzae (strain 46519); assay: inhibition of adherence of H. influenzae (strain 46519) to epithelial cells; format: cell-based; conditions: Haemophilus influenzae, Epithelial cell, read-out: IC50 [mean (SD)]
From the text: (§1) A method similar to that of Rostand, K. and Esko, (1993) J. Biol. Chem. 268 pp 24053-3, which studied the binding of radiolabelled P. aeruginosa to CHO cells was used to test for the binding inhibition of oligosaccharide compounds. For the studies described herein, S. pneumoniae (strains R-6, P70, and other clinical respiratory isolates) were labelled by culture in lysine-deficient tryptic soy broth containing ^3 H-lysine. The tryptic soy broth was made deficient in lysine by pre-treating it with lysine decarboxylase from E. coli. The bacteria were cultured for 4-5 hours, at which point the culture was in exponential growth. The bacteria were harvested and washed in Leibovitz L-15 Medium supplemented with 0.2% low-endotoxin bovine serum albumin. The bacteria were diluted to approximately 3×10^8 /mL, and then mixed 1:1 with either L-15-BSA or with various compounds to be tested. The bacterial mixtures were incubated at room temperature, with gentle agitation on an orbital shaker. After 10-15 min, samples of the bacterial mixtures were transferred to the surface of a confluent monolayer of cultured epithelial cells in a 96-well polystyrene plate. The cells most commonly used were the Wong-Kilbourne derivative of Chang conjunctiva. The human nasopharyngeal cell line Detroit 562, and the human lung cell line A549 were also used. The bacteria were incubated with the cells for 30 min with gentle agitation, at room temperature. The unbound bacteria were washed away with PBS containing 0.2% bovine serum albumin. Scintillant solution was added to the wells, and the plate was put in a microplate scintillation counter for quantitation of bound bacteria.
(§2) Adhesion of H. influenzae to epithelial cells was performed with the same protocol with the following modifications: The bacteria were cultured overnight in lysine-deficient Haemophilus test media. The bacteria were incubated with the cells at a concentration near 10^7 /mL for 60 min.
(§3) Using the testing protocol described in Example 2, four strains of bacteria were tested for binding inhibition by different oligosaccharide compounds.

S. pneumoniae = assay: inhibition of adherence of S. pneumoniae to respiratory epithelial cells; format: cell-based; conditions: Streptococcus pneumoniae
[2] = test system: H. influenzae (strain 39689); assay: inhibition of adherence of H. influenzae (strain 39689) to epithelial cells; format: cell-based; conditions: Haemophilus influenzae, Epithelial cell, read-out: IC50 [mean (SD)]
From the text: as §1, §2, §3

[3] = test system: Burkholderia (Pseudomonas) cepacia; assay: inhibition of adherence of Burkholderia (Pseudomonas) cepacia to respiratory epithelial cells; format: cell-based
From the text: as §1, §3

[4] = test system: Pseudomonas aeruginosa M35; conditions: Rosenstein et al (1992); isolate from cystic fibrosis patients; cited from earlier work
Escherichia coli C600 = conditions: Rosenstein et al (1992); cited from earlier work
S. pneumoniae strain AII [5] = assay: treatment of rabbits pre-colonized with S. pneumoniae with adherence-reversing oligosaccharide; format: in vivo, New Zealand white rabbits
Description: S. pneumonaie strain AII were administered to New Zealand white rabbits by tracheal instillation. All rabbits were sick at 24 h, with indications of pneumonia. After 24 h oligosaccharide (LNnT) or control (saline) was administered intratracheally. After an additional 24 h lung lavage colonies were counted as described in Example 3.

S. pneumoniae strain AII [6] = assay: colonization of rabbit lungs with S. pneumoniae in the presence of an adherence-inhibitory oligosaccharide; format: in vivo, New Zealand white rabbits; conditions: 100 μM
From the text: Rabbits S. pneumoniae strain AII were mixed with oligosacchardies and administered to New Zealand white rabbits by tracheal instillation, and lung lavage colonies were counted at the indicated time by the method described in Saukkonen, et al., 1991, J. Exp. Med. 173:1143-9.

[7] = test system: immunoglobulin E-binding protein; conditions: Feizi et al Biochemistry 1994; cited from earlier work
Pseudomonas aeruginosa = conditions: Ramphal et al (1991); cited from earlier work
Escherichia coli = conditions: Ginsburg et al U.S. Pat. No. 5,225,330; cited from earlier work
Streptococcus pneumoniae = conditions: Andersson et al J. Exp. Med. (1983); cited from earlier work
Mycoplasma pneumoniae = conditions: Ginsburg et al U.S. Pat. No. 5,225,330, Table I; cited from earlier work
[8] = A549, read-out: IC50 [mean (SD)], Monovalent, A549 human lung carcinoma, activated with IL1
[9] = Epithelial cell, read-out: IC50 [mean (SD)], Monovalent, Chang human conjunctival carcinoma
[10] = HUVEC, read-out: IC50 [mean (SD)], Monovalent, HUVEC activated with TNFα or thrombin
[11] = Burkholderia, Calu 3 cells, read-out: IC50 [mean (SD)]
[12] = Calu-3, read-out: IC50 [mean (SD)], Monovalent, CaLu-3 human lung carcinoma
[13] = Epithelial cell, read-out: IC50 [mean (SD)], Monovalent, Det-562 human nasopharyngeal carcinoma
[14] = experiment 1, inoculum 5 × 10^5 bacteria, intratracheal, 4 day lavage
[15] = experiment 2, inoculum 5 × 10^5 bacteria, intratracheal, 4 day lavage
[16] = experiment 3, inoculum 5 × 10^7 bacteria, 24 h lavage

Compound: CC(=O)N[C@H]1[C@H](O[C@H]2[C@@H](O)[C@@H](CO)O[C@@H](O[C@H]3[C@H](O)[C@@H](O)C(O)O[C@@H]3CO)[C@@H]2O)O[C@H](CO)[C@H](O)[C@@H]1O (stereo partly drawn) [Ga1NAc β1-3 Ga1β1-4 Glc, GalNAcβ1-3-Galβ1-4-Glc]
- IC50 [1]: 4200 µM
- IC50 (S. pneumoniae; [8]): 85 µM
- IC50 (S. pneumoniae; [9]): > 6000 µM
- IC50 (S. pneumoniae; [10]): 70 µM
- IC50 [2]: 10600 µM

Compound: CC(=O)N[C@H]1[C@H](O[C@H]2[C@@H](O)[C@@H](CO)O[C@@H](O[C@H]3[C@H](O)[C@@H](O)C(O)O[C@@H]3CO)[C@@H]2O)O[C@H](CO)[C@@H](O[C@@H]2O[C@H](CO)[C@H](O)[C@H](O[C@@H]3O[C@H](CO)[C@H](O)[C@H](O)[C@H]3NC(C)=O)[C@H]2O)[C@@H]1O (stereo partly drawn) [Ga1NAc β1-3 LNnT, GalNAcβ1-3-Galβ1-4-GlcNAcβ1-3-Galβ1-4-Glc]
- IC50 [1]: 7800 µM
- IC50 (S. pneumoniae; [8]): 80 µM
- IC50 (S. pneumoniae; [10]): 75 µM
- IC50 [2]: > 10000 µM

Compound: CC(=O)N[C@H]1[C@H](O[C@H]2[C@@H](O)[C@@H](CO)O[C@@H](O[C@H]3[C@H](O)[C@@H](O)C(O)O[C@@H]3CO)[C@@H]2O)O[C@H](CO)[C@@H](O[C@@H]2O[C@H](CO)[C@H](O)[C@H](O)[C@H]2O)[C@@H]1O (stereo partly drawn) [LNnT, Galβ1-4-GlcNAcβ1-3-Galβ1-4-Glc]
- IC50 [3, 11]: 5600 µM
- IC50 [1]: > 14000 µM
- binding activity [4]: high binding activity
- binding activity (Escherichia coli C600): high binding activity
- IC50 (S. pneumoniae; [8]): 95 µM
- IC50 (S. pneumoniae; [12]): > 16000 µM
- IC50 (S. pneumoniae; [9]): 8000 µM
- IC50 (S. pneumoniae; [13]): 7000 µM
- IC50 (S. pneumoniae; [10]): 52 µM
- condition of treated rabbits (S. pneumoniae strain AII [5]; at 48 h): healthy
- CFU (lung lavage) (S. pneumoniae strain AII [5]; inoculum 10^5 bacteria, 100 μM intratracheal, lavage 24 h after oligosaccharide treatment and 48 h after bacterial instillation): 0 CFU
- CFU (lung lavage) (S. pneumoniae strain AII [6]; experiment 1, inoculum 5 × 10^5 bacteria, intratracheal, 24 h lavage, 2 rabbits/group, one value per rabbit): 8.7 × 10^2 CFU (colonies/ml lavage fluid) and 4.7 × 10^3 CFU (colonies/ml lavage fluid)
- CFU (lung lavage) (S. pneumoniae strain AII [6]; [14]): < 10 CFU (colonies/ml lavage fluid)
- CFU (lung lavage) (S. pneumoniae strain AII [6]; [15]): 0 CFU (colonies/ml lavage fluid)
- CFU (lung lavage) (S. pneumoniae strain AII [6]; [16]): 0 CFU (colonies/ml lavage fluid)
- CFU (lung lavage) (S. pneumoniae strain AII [6]; experiment 4, inoculum 10^5 bacteria, intratracheal, 24 h lavage): 1.1 × 10^3 CFU (colonies/ml lavage fluid) and 1.4 × 10^3 CFU (colonies/ml lavage fluid)
- IC50 [2]: > 14000 µM

Compound: CC(=O)N[C@H]1[C@H](O[C@H]2[C@@H](O)[C@@H](CO)O[C@@H](O[C@H]3[C@H](O)[C@@H](O)C(O)O[C@@H]3CO)[C@@H]2O)O[C@H](CO)[C@@H](O[C@@H]2O[C@H](CO[C@]3(C(=O)O)C[C@H](O)[C@@H](NC(C)=O)[C@H]([C@H](O)[C@H](O)CO)O3)[C@H](O)[C@H](O)[C@H]2O)[C@@H]1O (stereo partly drawn) [LSTc, NeuAcα2-6-Galβ1-4-GlcNAcβ1-3-Galβ1-4-Glc]
- IC50 [3, 11]: 1000 µM
- IC50 ([3]; first table (P. cepacia), CaLu-3 lung carcinoma, read-out: IC50): 1000 µM
- binding activity [4]: no activity
- binding activity (Escherichia coli C600): no activity
- IC50 (S. pneumoniae; A549, first table, A549 lung carcinoma, activated with IL1): 100 µM
- IC50 (S. pneumoniae; [8]): 69 µM
- IC50 (S. pneumoniae; Calu-3, first table, CaLu-3 lung carcinoma): 4400 µM
- IC50 (S. pneumoniae; [12]): 4400 µM
- IC50 (S. pneumoniae; Epithelial cell, first table, 1° lung: rat tracheal primary epithelium): 400 µM
- IC50 (S. pneumoniae; Epithelial cell, first table, CHANG cells): 1500 µM
- IC50 (S. pneumoniae; Epithelial cell, first table, Det-562 nasopharyngeal carcinoma): 5400 µM
- IC50 (S. pneumoniae; Epithelial cell, read-out: IC50 [mean (SD)], Monovalent, 1° lung: rat trachea epithelial monolayer (primary)): 250 µM
- IC50 (S. pneumoniae; [9]): 1400 µM
- IC50 (S. pneumoniae; [13]): 4000 µM
- IC50 (S. pneumoniae; FaDu, first table, FaDu nasopharyngeal carcinoma): 4000 µM
- IC50 (S. pneumoniae; FaDu, read-out: IC50 [mean (SD)], Monovalent, FaDu human nasopharyngeal carcinoma): 4500 µM
- IC50 (S. pneumoniae; HUVEC, first table, HUVEC activated with TNFα or thrombin): 100 µM
- IC50 (S. pneumoniae; [10]): 69 µM
- binding by immunoglobulin E-binding protein [7]: not bound or is only negligibly bound
- CFU (lung lavage) (S. pneumoniae strain AII [6]; [14]): < 10 CFU (colonies/ml lavage fluid)
- CFU (lung lavage) (S. pneumoniae strain AII [6]; [15]): 0 CFU (colonies/ml lavage fluid)
- CFU (lung lavage) (S. pneumoniae strain AII [6]; [16]): 0 CFU (colonies/ml lavage fluid)
- activity in the direct adhesion assay (Pseudomonas aeruginosa): no activity
- IC50 [2]: > 10000 µM

Compound: CC(=O)N[C@H]1[C@H](O[C@H]2[C@@H](O)[C@@H](CO)O[C@@H](O[C@H]3[C@H](O)[C@@H](O)C(O)O[C@@H]3CO)[C@@H]2O)O[C@H](CO)[C@@H](O[C@@H]2O[C@H](CO)[C@H](O)[C@H](O[C@]3(C(=O)O)C[C@H](O)[C@@H](NC(C)=O)[C@H]([C@H](O)[C@H](O)CO)O3)[C@H]2O)[C@@H]1O (stereo partly drawn) [LSTd, NeuAcα2-3-Galβ1-4-GlcNAcβ1-3-Galβ1-4-Glc]
- IC50 (S. pneumoniae; [8]): 95 µM
- IC50 (S. pneumoniae; [9]): 600 µM
- IC50 (S. pneumoniae; [10]): 90 µM

Compound: CC(=O)N[C@H]1[C@H](O[C@H]2[C@@H](O)[C@@H](CO)O[C@@H](O[C@H]3[C@H](O)[C@@H](O)C(O)O[C@@H]3CO)[C@@H]2O)O[C@H](CO)[C@@H](O)[C@@H]1O[C@@H]1O[C@H](CO)[C@H](O)[C@H](O[C@]2(C(=O)O)C[C@H](O)[C@@H](NC(C)=O)[C@H]([C@H](O)[C@H](O)CO)O2)[C@H]1O (stereo partly drawn) [NeuAcα2-3-Galβ1-3-GlcNAcβ1-3-Galβ1-4-Glc, reference compound]
- binding by immunoglobulin E-binding protein [7]: strongly bound

Compound: N-glycolylsialoparagloboside
- inhibition (Escherichia coli): inhibition

Compound: NeuAcα2-3Galβ1-4-GlcNAcβ1-3-Galβ1-4-Glc--Cer [compound 3]
- binding inhibition (Streptococcus pneumoniae): no effect

Compound: sialylparagoboside
- binding inhibition (Mycoplasma pneumoniae): no activity
